Data on five compounds can be found in BindingDB's records for doi:10.1021/jm9806650 (Institute of Chemical Technology, 1999).

The test can be described thus: The compound was tested in vitro for inhibition of HIV-1 replication.

As usually defined, the IC50 is the concentration needed to halve the response being measured. A lower IC50 goes with inhibition by little substance. `COc1ccc(-c2c3n(c4c(=O)oc5cc(OS(=O)(=O)O)c(OC)cc5c24)CCc2cc(OC)c(OC)cc2-3)cc1O` registered an IC50 of 12 µM.

`COc1ccc(-c2c3c4cc(OC)c(O)cc4oc(=O)c3n3ccc4cc(O)c(OC)cc4c23)cc1O` [3,10-Dihydroxy-13-(3-hydroxy-4-methoxy-phenyl)-2,11-dimethoxy-5-oxa-6b-aza-dibenzo[a,i]fluoren-6-one] had an IC50 of 1 µM. Compared with the last compound, the IC50 is about 12-fold lower. With `COc1ccc(-c2c3c4cc(OC)c(O)cc4oc(=O)c3n3ccc4c(OC)c(OC)c(OC)cc4c23)cc1O` [3-Hydroxy-13-(3-hydroxy-4-methoxy-phenyl)-2,9,10,11-tetramethoxy-5-oxa-6b-aza-dibenzo[a,i]fluoren-6-one] the figure was 20 µM. With `COc1ccc(-c2c3n(c4c(=O)oc5cc(O)c(OC)cc5c24)CCc2c-3cc(OC)c(OC)c2OC)cc1O` [3-Hydroxy-13-(3-hydroxy-4-methoxy-phenyl)-2,9,10,11-tetramethoxy-7,8-dihydro-5-oxa-6b-aza-dibenzo[a,i]fluoren-6-one] the figure was 18 µM; with `COc1ccc(-c2c3n(c4c(=O)oc5cc(OS(=O)(=O)O)c(OC)cc5c24)C(O)Cc2c-3cc(OC)c(OC)c2OC)cc1O` (stereo not given) [7-Hydroxy-13-(3-hydroxy-4-methoxy-phenyl)-2,9,10,11-tetramethoxy-7,8-dihydro-5-oxa-6b-aza-dibenzo[a,i]fluoren-6-one sodium sulfonate], 20 µM.
